According to patent publication US20160271248A1, “CXCR4 UP- AND DOWN-REGULATION FOR TREATMENT OF DISEASES OR DISORDERS” (priority 2013, published 2016):

Columns and labels:
TNF-α = assay: ELISA of secreted TNF-α in neuronal/glial co-cultures; format: cell-based, rat; conditions: 200 pM for 24 hours; vs controls
Procedure: (§1) TNF-α and IL-1β secreted protein levels were determined from co-culture supernatants using commercially available rat TNF-α and IL-1β kits (Quantikine, R&D Systems). The assays were performed following the manufacturer's instructions. Absorbance was read at 450 nm using Wallac Victor2 1420 Multilabel Counter (PerkinElmer). The concentration of secreted TNF-α and IL-1β are expressed as picograms per milliliter (pg/mL); values were normalized to total protein content for each well.

IL-1β = assay: ELISA of secreted IL-1β in neuronal/glial co-cultures; format: cell-based, rat; conditions: 200 pM for 24 hours; vs controls
Procedure: as §1

[1] = Attention set-shifting task after gp120 infusions; format: in vivo, rat; conditions: SD rats, vs BSA
Procedure: Rats (200-400 g, male Sprague-Dawley, Taconic Farms) were stereotaxically implanted, under isoflurane anesthesia, with stainless-steel cannulas placed 0.96 mm posterior and 3.18 mm lateral to bregma, 3.47 mm below the surface of the cranium at an angle of 22°. Four stainless-steel screws (#0-80) were placed around the cannula and acrylic dental cement was used to anchor the cannula. Animals were allowed seven days to recover before receiving a bilateral infusion of 1 μl of gp120IIIB (50 ng/μl) once daily for seven days via a 10 microliter Hamilton Syringe, needle diameter 0.48 mm; infusion rate=0.374 microliters/minute. Animals were food restricted and began behavioral testing 21 days following the final infusion.
Animals were tested in an attention set-shifting task (Birrell & Brown, 2000, J. Neurosci. 20(11); 4320-4324). On day 1 of testing, food restricted rats are habituated to the testing chamber for 20 minutes. The testing chamber (17″×22″×10″ H) is divided lengthwise by a plexiglass wall with a guillotine-style door creating a waiting area (one-third of the chamber), and a testing area (remaining two-thirds of the chamber). The far wall of the testing area (furthest from the waiting area) is bisected by a plexiglass divider that extended 9.25 inches; thus creating two distinct yet easily accessible sides of the testing area. The following day, rats are trained to dig in terra cotta pots to obtain a food reward (Frosted Cheerio). The food reward is progressively buried deeper in the pots, filled with corn cob bedding, until the rat reliably digs to retrieve the food reward. On day 3, rats undergo exemplar training, discriminating between sensory cues to determine which pot contains the food reward. […] If the rat begins digging in the incorrect pot, the pots are removed from the testing area, the rat is placed back into the waiting area, and the trial is recorded as incorrect. […]

FHC = assay: Neuronal FHC protein levels by Western blot in cultured cortical neurons; format: cell-based, rat
Procedure: Rat cortical neurons were cultured in the presence of a glial feeder layer, using the bilaminar cell culture model. Due to the presence of glia this culture system largely preserves the in vivo mechanisms of neuronal growth and differentiation, but also allows for direct studies on neurons, which were separated from glia at the time of analysis. Selected experiments were performed using glia-free neuronal cultures, as noted, using previously described protocols (Sengupta et al., 2009, J. Neurosci. 29:2534-2544). Neurons were transfected at the time of plating by Nucleofection (Amaxa), or after 8 days in culture by lipofectamine (Invitrogen). All experiments were conducted at 21 DIV, unless otherwise noted. HDAC4 and control (scrambled) siRNA were obtained from Ambion (s170677 and 4390843), and FHC/scrambled shRNA from GenScript (custom order; shRNA vector also expressed GFP).
Protease and phosphatases inhibitors were added to both buffers.
Rat cortical neurons were cultured in serum-free media in the presence of a glial feeder layer (Shimizu, et al., 2011, J. Vis. Exp. 57). This culture system largely preserves the in vivo environment, due to the presence of glia; however, it still enables direct investigation of neurons that can be separated by the glia before experiments. Selected studies were also performed in neurons grown in the absence of glia for the entire culture period, as indicated (Sengupta, et al., 2009, J. Neurosci. 29(8):2534-44). All experiments were conducted between 8-13 days in vitro (DIV).
Total protein extracts were obtained using standard protocols. […] The following antibodies were used: anti-FHC (3998, Cell Signaling Technology, 1:1,000) and anti-β-actin (A2066, Sigma-Aldrich, 1:5,000).

[2] = test system: layer II/III pyramidal neurons of the prefrontal cortex; assay: In vivo dendritic spine analysis (Golgi stain, Neurolucida); parameters: species or system rat

gp120IIIB: X4-using HIV-1 envelope protein gp120, from Immunodiagnostics
secreted TNF-α levels in culture media (TNF-α): significantly higher
secreted IL-1β levels in culture media (IL-1β): significantly higher
attention set-shifting performance ([1]; testing 21 days after final infusion): impaired attention set-shifting performance
extra-dimensional shifts [1]: impaired in extra-dimensional shifts
reversal learning (Reversal 2, Reversal 3) [1]: impaired in the reversal learning component of the task
neuronal expression of FHC (FHC; in the presence of glial feeder layer, 200 pM, up to 24 hr): able to increase neuronal expression of FHC
neuronal FHC protein levels (FHC; pure neuronal cultures, 200 pM for 3, 6, or 24 hours): only transiently increased FHC
average dendrite length ([2]; gp120-treated rats vs BSA): no changes in the average dendrite length
number of branching points ([2]; gp120-treated rats vs BSA): reduced number of branching points
spine density ([2]; gp120IIIB 50 ng/μl, 1 μl bilateral infusion once daily for seven days, vs BSA): reduction of spine density in layer II/III PFC neurons
